Patent US20030044413A1, “Methods of limiting apoptosis of cells” (Regents of the University of Minnesota, priority 1998, published 2003)

How the values were obtained:
hepatocytes = experiment: TUNEL assay in liver of rats fed bile acids; assay type: in vivo, rat; conditions: 10 days
Source text: Animals and diets. Male 160-175 gram (g) Sprague-Dawley rats (Sprague-Dawley, Indianapolis, Ind.) were maintained on a 12-hour (h) light-dark cycle and fed standard laboratory chow ad libitum for 3 days. […] On day 10, the animals were sacrificed by exsanguination under ether anesthesia between 9 a.m. and 11 a.m. The livers were removed, rinsed in normal saline, and flash-frozen in liquid nitrogen. Liver tissue samples were embedded in OCT, and 5 μm-thick cryostat sections were cut and mounted on slides. […] All animals received human care in compliance with the Guide for the Care and use of Laboratory Animals, prepared by the National Academy of Sciences (NIH Publication No. 86-23, revised 1985). Terminal transferase-mediated dUTP-digoxigenin nick end labeling (TUNEL) assay. Digoxigenin-nucleotide residues were added to 3′-OH ends of double or single-stranded DNA by terminal deoxynucleotidyl transferase. Reactions were performed according to the manufacturer's recommendations (Oncor, Inc., Gaithersburg, Md.), and the specimens were then coversliped with Permount medium (Fischer Scientific, Inc., Itasca, Ill.) prior to analysis by phase-contrast microscopy using a Nikon microscope (Nikon, Inc., Melville, N.Y.). Photographs were taken using Kodak Ektar-1000 film (Eastman Kodak Co., Rochester, N.Y.).

HuH-7 cells [1] = experiment: DCA-induced apoptosis, Hoechst staining, HuH-7 cells; assay type: cell-based; conditions: for percent of apoptotic cells: 6 h
Source text: Cell culture and preparation of rat primary hepatocytes. Rat primary hepatocytes were isolated from male Sprague-Dawley rats (200-250 g) by collagenase perfusion as described previously (Mariash et al., J. Biol. Chem, 261, 9583-9586 (1986)). Briefly, rats were aneshtesized with phenobarbitol and the livers were perfused with 0.05% collagenase. Hepatocyte suspensions were obained by passing digested livers through 0.125 mm gauze and washing cells in modified Eagles' medium (MEM, Life Technologies, Inc., Grand Island, N.Y.). […] After isolation, hepatocytes were resuspended in William's E medium (Life Technologies, Inc., Grand Island, N.Y.) supplemented with 26 mM sodium bicarbonate, 23 mM HEPES, 0.01 U/ml insulin, 2 mM L-glutamine, 10 nM dexamethasone, 5.5 mM glucose, 100 U/ml penicillin and 100 U/ml streptomycin and then 1.0×10^6 cells were plated on 35×10 mm […] tissue culture dishes (Becton Dickinson Labware, Lincoln Park, N.J.). The cells were maintained at 37° C. in a humidified atmosphere of 5% CO2 for 3 h. Plates were then washed with medium to remove dead cells, and medium containing 10% heat-inactivated FBS (55° C. for 30 min) was added (Atlanta Biologicals, Inc., Norcross, Ga.). Aliquots of 1.0×10^5 human (HuH-7) hepatoma cells were plated on 35×10 mm tissue culture dishes (Becton Dickinson Labware) and maintained at 37° C. in Dulbecco's MEM (Atlanta Biologicals, Inc.) supplemented with 10% FBS, 100 U/ml penicillin and 100 u/ml streptomycin for 3 h prior to incubation with bile acids.
Incubation of cells with bile acids. Freshly isolated rat hepatocytes were cultured for 3 h as described above and then incubated with William's E medium supplemented with either 50 μM DCA, 50 μM UDCA (Sigma Chemical Co., St. Louis, Mo.), their combination, or no bile acid (control), for 2 h, 4 h, and 6 h. HuH-7 cells cultured for 3 h as described above were incubated with Dulbecco's MEM medium supplemented with either 50 μM, 100 μM, 500 μM, or 1000 μM DCA, UDCA, DCA+UDCA, or no addition (control) for 6 h and 24 h. The medium was gently removed at the indicated time points and scored for nonviable cells by trypan blue dye exclusion. The attached cells were fixed for morphologic assessment of apoptotic changes.
Morphological evaluation of apoptosis. Morphology was performed as described previously (Oberhammer et al., Proc. Natl. Acad. Sci. USA 89, 5408-5412 (1992)). Briefly, after fixation (with 4% formaldehyde in PBS, pH 7.4, for 10 min at room temperature), the cells were incubated with Hoechst dye 33258 (Sigma Chemical Co.) at 5 μg/ml in PBS for 5 min, washed with PBS and mounted with PBS:glycerol (3:1, v/v). Fluorescence was visualized with a Zeiss standard fluorescence microscope (Carl Zeiss, Inc., Thornwood, N.Y.). Photographs were taken with Kodak Ektar-1000 film (Eastman Kodak Co.). Stained nuclei were scored by blind analysis and categorized according to the condensation and staining characteristics of chromatin. Normal nuclei were identified as noncondensed chromatin dispersed over the entire nucleus. Apoptotic nuclei were identified by condensed chromatin, contiguous to the nuclear membrane, as well as nuclear fragmentation of condensed chromatin. Three fields per dish of approximately 500 nuclei were counted; mean values are expressed as the percent of apoptotic nuclei.

HuH-7 cells [2] = experiment: FACS analysis of ΔΨm and ROS, HuH-7 cells; assay type: cell-based, human
Method: A ΔΨm and ROS measurement. ΔΨm and ROS production were measured by FACScan (Becton Dickinson) analysis. Freshly isolated rat hepatocytes were cultured for 3 h as described above and then incubated with William's E medium supplemented with either 100 μM DCA, 100 μM UDCA, equal molar amounts of both, or no bile acid (control), for 6 h. Rat hepatocytes were also cultured with either 1% ethanol, 100 μM UDCA, ethanol+UDCA, or no addition (control) for 4 h. HuH-7 cells, Hep G2 cells, and human osteogenic sarcoma Saos-2 cells were incubated with TGF-β1, anti-Fas antibody or okadaic acid, respectively, for 48 h under the same conditions as outlined above. For combination studies, cells were pretreated with UDCA or hyodeoxycholic acid for 60 min prior to addition of DCA, ethanol, TGF-β1, anti-Fas antibody or okadaic acid. Aliquots of 1.0×10^6 cells were incubated for 15 min at 37° C. with 50 nM 3,3′-dihexyloxacarbocyanine iodide [DiOC6(3)], 2 μM dihydroethidium (HE), or 5 μM 2′,7′-dichlorofluorescin diacetate (H2DCFDA; Molecular Probes, Inc. Eugene, Oreg.) and analyzed by cytofluorometry (Cathcart et al., Anal. Biochem., 134, 111-116 (1983); Zamzami et al., J. Exp. Med., 181, 1661-1672 (1 995); Carter et al., J. Leukocyte Biol., 55, 253-258 (1994)).
Rat primary hepatocytes were incubated with 100 μM DCA and 1% ETOH for 6 h and 4 h, respectively; HuH-7 cells with 1 nM TGF-β1 for 48 h; Hep G2 cells with 0.5 μg/ml anti-Fas antibody (CH-11) for 48 h, and Saos-2 cells with 50 nM okadaic acid (OA) for 48 h. In each combination group, cells were pretreated with 100 μM UDCA alone for 60 min prior to addition of the inducer. Aliquots of 1.0×10^6 cells were incubated for 15 min at 37° C. with 5 μM 2′,7′-dichlorofluorescin diacetate (H2DCFDA) and analyzed by cytofluorometry.

[3] = rats fed chow with 0.4% bile acid
[4] = inducer TGF-β1, HuH-7, inhibition by UDCA

| Compound | change in TUNEL-positive cells (hepatocytes; FIG. 1 legend, 0.4% in chow) | increase in TUNEL-positive liver cells from control values (hepatocytes; [3]) | liver cells with positive nuclear staining for fragmented DNA (TUNEL) (hepatocytes; [3]) | percent of apoptotic cells (HuH-7 cells [1]; 100 μM DCA) | apoptotic cells (HuH-7 cells [1]; 100 μM DCA, 24 h) | percent of apoptotic cells (HuH-7 cells [1]; 1000 μM DCA) | necrosis (HuH-7 cells [1]; elevated bile acid concentrations (up to 1000 μM DCA)) | apoptotic cells (HuH-7 cells [1]; 100 μM DCA + UDCA combination, 24 h) | increase in cell viability by coincubation with UDCA (HuH-7 cells [1]; DCA + UDCA, 24 h) | Peroxides Production (%) Inducer + UDCA (HuH-7 cells [2]; 1 nM TGF-β1 48 h, 100 μM UDCA pretreatment 60 min) | inhibition at 100 µM (HuH-7 cells [2]; Homo sapiens, inducer TGF-β1, HuH-7, 100 μM UDCA, read-out: % Inhibition of peroxides production) | Inhibition % Superoxide Anion (HuH-7 cells [2]; [4]) | Inhibition % _Ψm (HuH-7 cells [2]; [4]) | Peroxides Production (%) Inducer (HuH-7 cells [2]; 1 nM TGF-β1, 48 h, HuH-7) |
| --- | --- | --- | --- | --- | --- | --- | --- | --- | --- | --- | --- | --- | --- | --- |
| C[C@H](CCC(=O)O)[C@H]1CC[C@H]2[C@@H]3CC[C@@H]4C[C@H](O)CC[C@]4(C)[C@H]3C[C@H](O)[C@]12C [DCA, deoxycholic acid] | significant increase | ~40 fold | 11% | 16.8% | 20±2.8% | 66.7% | no apparent necrosis |  |  |  |  |  |  |  |
| C[C@H](CCC(=O)O)[C@H]1CC[C@H]2[C@@H]3[C@@H](O)C[C@@H]4C[C@H](O)CC[C@]4(C)[C@H]3CC[C@]12C [UDCA, ursodeoxycholic acid] |  | 2 fold |  |  |  |  |  | 11.5±2.1% | 44±7.1% | 5.8 ± 2.9 % | 47.3 ± 16% | 69.9 ± 15.6% | 45.0 ± 21.7% |  |
| TGF-β1: transforming growth factor β1, nonmembrane damaging inducer of apoptosis |  |  |  |  |  |  |  |  |  |  |  |  |  | 11.0 ± 2.9% |
